{"source": "paper PMC7618036", "about": "“An oral heme oxygenase inhibitor targets immunosuppressive perivascular macrophages in preclinical models of cancer” (Science translational medicine, 2025)", "system": "MMTV-PyMT tumors", "test": "Tumor growth in MMTV-PyMT mice bearing established spontaneous tumors", "type": "in vivo, mouse", "conditions": "single agent, i.p. 25 µMol/kg/day", "description": "Vertical dashed black lines mark the start of treatment (day 0) and horizontal red line marks 250 mm^3. Solid lines represent individual tumors and mice. Images in panel (A) and (B) were created using BioRender. ** P<0.01.\n(D-G) The MMTV-PyMT mice in (B) were evaluated for evidence of toxicity, including weight change from treatment initiation (D), end of treatment (day 21) plasma ratio of AST:ALT enzymes (E), blood circulating immune cells assessed using flow cytometry (F) and pathology assessment of inflammatory cell infiltrate in the lungs alongside an additional cohort or WT non-tumor bearing mice given dual treatment for 21 days and then assessed at treatment cessation or 30 days after treatment cessation (G). Image in panel (A) was created using BioRender. Bar charts show the mean, error bars SD, and the dots show individual data points from individual tumors and mice. Line charts display the mean and SEM. Gemc.; gemcitabine. * P<0.05, ** P<0.01.\nMN-MCA1 sarcoma cells were orthotopically implanted into syngeneic C57Bl/6 mice for tumors. A total of 2.5 x 10^5 cells in 100 μL RPMI were injected subcutaneously into female mice. In MMTV-PyMT mice, tumors arose spontaneously. When tumors became palpable, volumes were measured every 2-4 days using digital caliper measurements of the long (L) and short (S) dimensions of the tumor. […]"}
{"substance": "Sn (IV) mesoporphyrin IX dichloride [SnMP]", "values": [{"measurement": "tumor growth", "result": "did not control tumor growth"}]}
